How the values were obtained:
COS7 cells [1] = test: Incorporation of [1-14C]photo-Met and [3H]Phe into newly synthesized protein; type: cell-based, monkey
Protocol: Cells were washed 6 times with PBS and lysed in 0.5% Triton X-100, 0.2% sodium deoxycholate. Aggregated DNA was removed, protein was precipitated^43, the pellet was redissolved in 0.3 ml 0.5% SDS and subjected to a second round of precipitation. […] The dried pellet was redissolved and processed for scintillation counting (data of Table 1 and FIG. 4b) or processed as follows for amino acid analysis (FIG. 2b): the pellet was dissolved in 600 µl 50 mM NH4HCO3, 0.5% SDS, 3 mM CaCl2 containing 0.25 mg pronase (Roche) followed by incubation at 37° C. for 20 h. The sample was lyophilized, dissolved in 600 μl of 7 N HCl containing 4 mg of glutamic acid and 6 mg of photo-Met and heated to 70° C. for 24 h. A Dowex 50WX8 column (1.6×24 cm) was prepared^18 and equilibrated with 0.1 M sodium citrate pH 3.8. The sample was concentrated to 50 μl in a speed-vak, diluted to 1 ml with 0.1 M sodium citrate pH 3.8, and loaded onto the column. The column was eluted at 24° C. at a flow rate of 20 ml/h with 70 ml 0.1 M sodium citrate pH 3.8, 26 ml 0.1 M sodium citrate pH 4.3 and 100 ml of 0.1 M sodium citrate pH 4.5. Fractions of 3 ml were collected and assayed for absorbance at 350 nm, radioactivity by scintillation counting, and amino groups by the fluorescamine method^44.
To decrease competition for activation by tRNA synthetases, media devoid of the structurally related amino acids Leu and Met (LM-2) or, for some experiments, devoid of Leu, Met, Ile and Val (LM-4) were used. Proteins incorporated radioactivity as shown by autoradiography after separation by SDS-PAGE (FIG. 2a, lane 3). […] 88% of the radioactivity in the labeled proteins was intact [1-^14C]photo-Met (FIG. 2b, photo-Met). A small peak eluting slightly earlier than glutamic acid (FIG. 2 B, Glu) contained 7% of the radioactivity. This peak was also observed if free [1-^14C]photo-Met was heated with HCl under the conditions of the hydrolysis (data not shown) and therefore represents a product of thermal decomposition of the amino acid. Under the conditions employed, radioactivity originating from degradation/re-integration would be expected to appear as aspartate and glutamate (oxidative release of [^14C]CO2, metabolism via pyruvate carboxylase, citric acid cycle and transamination to Gln and Asn that will be hydrolyzed to Glu and Asp by hot HCl). However, no radioactivity was incorporated via this pathway. We conclude that at least 95% of incorporated radioactivity represents intact [1-^14C]photo-Met. To obtain quantitative data on the frequency of incorporation of photo-Met into newly synthesized protein, we performed co-labeling with [1-^14C]photo-Met and [^3H]Phe. […] Two in three hundred amino acids in newly synthesized protein will be photo-Met.

COS7 cells [2] = test: Competition of [1-14C]photo-Met incorporation by natural amino acids; type: cell-based, monkey; conditions: 1.7 mM [1-14C]photo-Met, 3 mM competing amino acid
Protocol: FIG. 4: Specificity of incorporation and cross-linking by photo-Met and photo-Leu. COS7 cells were transfected with HA-tagged human PGRMC1 and were grown in LM-4 in the absence or presence of photo-Leu (A) or photo-Met (B) with addition of 3 mM of the indicated competing amino acid. cross-linked products formed after UV-irradiation were detected by SDS-PAGE followed by western blotting against the HA-epitope. (C) COS7 cells were grown in the presence of 1.7 mM [1-^14C]photo-Met, a constant trace amount of [^3H]Phe and 3 mM of competing unlabeled amino acids as indicated in the legend. Protein was precipitated and protein-bound radioactivity was determined by scintillation counting. […] The control value obtained in the absence of competing amino acid (con) is set to 100. Data are average±SD of triplicate determinations.
COS7 cells were grown for 20 h in LM-2 containing radiolabeled amino acids ([1-^14C]photo-Met and [^3H]Phe). Cells were washed 6 times with PBS and lysed in 0.5% Triton X-100, 0.2% sodium deoxycholate. Aggregated DNA was removed, protein was precipitated^43, the pellet was redissolved in 0.3 ml 0.5% SDS and subjected to a second round of precipitation. […] Fractions of 3 ml were collected and assayed for absorbance at 350 nm, radioactivity by scintillation counting, and amino groups by the fluorescamine method^44. […]

In the case of `CC1(CCC(N)[14C](=O)O)N=N1` (racemic) [[1-^14C]photo-Met, DL-[1-^14C]-2-amino-5,5′-azi-hexanoic acid], the “Relative frequency (of total amino acids in newly synthesized protein)” value (COS7 cells [1]; COS7 cells grown 22 h in LM-2) was 0.7%, the Incorporated amino acid (COS7 cells [1]; COS7 cells grown 22 h in LM-2, average ± SD of triplicate) was 0.50 ± 0.05 nmol/dish and the Protein-bound activity (COS7 cells [1]; COS7 cells grown 22 h in LM-2 with [3H]Phe and [1-14C]photo-Met, average ± SD of triplicate) was 2.34 ± 0.23 nCi/dish. The “frequency of incorporation relative to that of phenylalanine” value (COS7 cells [1]; co-labeling with [1-14C]photo-Met and [3H]Phe) was 14%, the “competition of incorporation by Met and Leu” value (COS7 cells [2]) was “strongly competed” and the “effect of Val and Ile on incorporation” value (COS7 cells [2]) was “slightly stimulated incorporation”.

— US20090211893A1, “Photo-Activatable Amino Acids” (priority 2005, published 2009)
